In patent US12479821B2 (MBD CO., LTD., priority 2019, dated 2025) one finds inhibition data, which are given here for 27 molecules.

The test deals with T1, CYP4A (Homo sapiens, UniProt Q02928).
T1 construct: host or cells: bactosome, i.e. bacterial membrane preparation (own knowledge of the term)
T1 sequence (Q02928 5-519): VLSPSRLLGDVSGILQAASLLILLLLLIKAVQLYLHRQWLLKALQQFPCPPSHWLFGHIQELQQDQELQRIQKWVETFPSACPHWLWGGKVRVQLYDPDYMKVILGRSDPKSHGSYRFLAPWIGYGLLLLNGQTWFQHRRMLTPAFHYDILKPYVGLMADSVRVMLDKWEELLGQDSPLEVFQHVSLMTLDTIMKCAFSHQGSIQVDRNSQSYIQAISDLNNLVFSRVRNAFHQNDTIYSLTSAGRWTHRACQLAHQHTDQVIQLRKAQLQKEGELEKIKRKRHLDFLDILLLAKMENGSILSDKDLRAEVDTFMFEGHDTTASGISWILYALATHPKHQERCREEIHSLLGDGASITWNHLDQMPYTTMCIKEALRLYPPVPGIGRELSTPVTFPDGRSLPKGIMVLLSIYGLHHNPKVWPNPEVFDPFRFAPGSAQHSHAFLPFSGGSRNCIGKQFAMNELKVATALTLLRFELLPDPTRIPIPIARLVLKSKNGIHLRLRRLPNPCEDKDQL
As to the kind of experiment: CYP4A enzyme assay (Luciferin-ME luminescence, CYP4A bactosome). The following applies: compound concentration 5 μM. It counts as biochemical. Here is the method: A commercially available reagent was used for the reagent used in the experiment, and it was manufactured and used if necessary. The device used for activity measurement was EnVision of PerkinElmer or SpectraMax of MOLECULAR DEVICES.
First, CYP4A bactosome and synthetic compound (5 μM) were mixed in assay buffer (100 mM KPO4, 0.1% BSA, 1 mM DTT) in a 384-well plate (white opaque ploystyrene nontreated flat-bottom well), and then reacted at room temperature for 15 minutes. After adding 5 mM Luciferin-ME and NADPH Regeneration system (10× sol.A, 20× sol.B in assay buffer, Cat. Number: V865B, Promega), leave it at room temperature for 30 minutes to allow the CYP4A reaction to occur sufficiently, by adding the Luciferin Detection reagent, the CYP4A reaction was finished, luminescence reaction was induced, and the reaction was carried out at room temperature for 15 minutes. The degree of inhibition of CYP4A activity was measured by comparing the luminescence values from each well with a microplate reader.

Setting [1] is: 75% or more, read-out: % Inhibition 75% or more.
Setting [2] is: '50%-75%', read-out: % Inhibition 50%-75%.
Setting [3] is: 25%-50%, read-out: % Inhibition 25%-50%.

Like-named read-outs stand apart in the source and are kept apart here.

As usually defined, the inhibition is the change of the read-out against control, counted positive when it falls. Consider `COc1cccc(S(=O)(=O)N2CCCC(C(=O)N3CCN(c4ccnc5cc(F)ccc45)CC3)C2)c1` (stereo not drawn) [Formula 58, (4-(7-fluoroquinolin-4-yl)piperazin-1-yl) (1-(3-methoxyphenylsulfonyl)piperidin-3-yl) methanone], for which the inhibition at 5 µM under setting [1] is ≥ 75%.

On to `CC(=O)Nc1cccc(S(=O)(=O)N2CCC[C@@H](C(=O)N3CCN(c4ccnc5cc(F)ccc45)CC3)C2)c1` [Formula 59, (R)—N-(3-(3-(1-(7-fluoroquinolin-4-yl)piperazine-4-carbonyl)piperidin-1-ylsulfonyl)phenyl) acetamide], for which the inhibition at 5 µM under setting [1] was ≥ 75%.

As for `O=C([C@@H]1CCCN(S(=O)(=O)c2cccc([N+](=O)[O-])c2)C1)N1CCN(c2ccnc3cc(F)ccc23)CC1` [Formula 60, (R)-(4-(7-fluoroquinolin-4-yl)piperazin-1-yl) (1-(3-nitrophenylsulfonyl)piperidin-3-yl) methanone], the inhibition at 5 µM under setting [1] was ≥ 75%.

In the case of `CN(C)c1cccc(S(=O)(=O)N2CCC[C@@H](C(=O)N3CCN(c4ccnc5cc(F)ccc45)CC3)C2)c1` [Formula 61, (R)-(1-(3-(dimethylamino)phenylsulfonyl)piperidin-3-yl) (4-(7-fluoroquinolin-4-yl)piperazin-1-yl) methanone], under setting [1], the inhibition at 5 µM is ≥ 75%.

On to `O=C(C1CCCN(S(=O)(=O)c2cccc(Br)c2)C1)N1CCN(c2ccnc3cc(F)ccc23)CC1` (stereo not drawn) [Formula 62, (1-(3-bromophenylsulfonyl)piperidin-3-yl) (4-(7-fluoroquinolin-4-yl)piperazin-1-yl) methanone], for which the inhibition at 5 µM under setting [1] was ≥ 75%.

On to `CC(=O)Nc1ccc(S(=O)(=O)N2CCCC(C(=O)N3CCN(c4cc(C(F)(F)F)nc5ccccc45)CC3)C2)cc1` (stereo not drawn) [Formula 63, N-(4-(3-(1-(2-(trifluoromethyl)quinolin-4-yl)piperazine-4-carbonyl)piperidin-1-ylsulfonyl)phenyl) acetamide], for which the inhibition at 5 µM under setting [2] lay in the range of 50 to 75%.

Take `O=C(C1CCCN(S(=O)(=O)c2ccccc2)C1)N1CCN(c2cc(C(F)(F)F)nc3ccccc23)CC1` (stereo not drawn) [Formula 64, (1-(phenylsulfonyl)piperidin-3-yl) (4-(2-(trifluoromethyl)quinolin-4-yl)piperazin-1-yl)methanone]: the inhibition at 5 µM (mark in column '25% or less', read-out: % Inhibition 25% or less) was ≤ 25%.

Regarding `Cc1ccc(S(=O)(=O)N2CCCC(C(=O)N3CCN(c4cc(C(F)(F)F)nc5ccccc45)CC3)C2)cc1` (stereo not drawn) [Formula 65, (1-tosylpiperidin-3-yl) (4-(2-(trifluoromethyl)quinolin-4-yl)piperazin-1-yl) methanone], the inhibition at 5 µM under setting [3] was 25 to 50%.

As to `O=C(C1CCCN(S(=O)(=O)c2ccc(F)cc2)C1)N1CCN(c2cc(C(F)(F)F)nc3ccccc23)CC1` (stereo not drawn) [Formula 66, (1-(4-fluorophenylsulfonyl)piperidin-3-yl) (4-(2-(trifluoromethyl)quinolin-4-yl)piperazin-1-yl) methanone], the inhibition at 5 µM under setting [3] lay within 25 to 50%.

As to `CN(C)c1ccc(S(=O)(=O)N2CCCC(C(=O)N3CCN(c4cc(C(F)(F)F)nc5ccccc45)CC3)C2)cc1` (stereo not drawn) [Formula 67, (1-(4-(dimethylamino)phenylsulfonyl)piperidin-3-yl) (4-(2-(trifluoromethyl)quinolin-4-yl)piperazin-1-yl) methanone], the inhibition at 5 µM under setting [2] was in the range of 50 to 75%.

Regarding `O=C(C1CCCN(S(=O)(=O)c2ccc(O)cc2)C1)N1CCN(c2cc(C(F)(F)F)nc3ccccc23)CC1` (stereo not drawn) [Formula 68, (1-(4-hydroxyphenylsulfonyl)piperidin-3-yl) (4-(2-(trifluoromethyl)quinolin-4-yl)piperazin-1-yl) methanone], the inhibition at 5 µM under setting [3] was 25 to 50%.

In the case of `O=C([C@@H]1CCCN(S(=O)(=O)c2ccc(O)cc2)C1)N1CCN(c2cc(C(F)(F)F)nc3ccccc23)CC1` [Formula 69, (R)-(1-(4-hydroxyphenylsulfonyl)piperidin-3-yl) (4-(2-(trifluoromethyl)quinolin-4-yl)piperazin-1-yl) methanone], the inhibition at 5 µM under setting [2] lay in the range of 50 to 75%.

Consider `O=C([C@H]1CCCN(S(=O)(=O)c2ccc(O)cc2)C1)N1CCN(c2cc(C(F)(F)F)nc3ccccc23)CC1` [Formula 70, (S)-(1-(4-hydroxyphenylsulfonyl)piperidin-3-yl) (4-(2-(trifluoromethyl)quinolin-4-yl)piperazin-1-yl) methanone], for which the inhibition at 5 µM under setting [3] fell in the range of 25 to 50%.

Regarding `O=C(C1CCCN(S(=O)(=O)c2ccc(C(F)(F)F)cc2)C1)N1CCN(c2cc(C(F)(F)F)nc3ccccc23)CC1` (stereo not drawn) [Formula 71, (1-(4-(trifluoromethyl)phenylsulfonyl)piperidin-3-yl) (4-(2-(trifluoromethyl)quinolin-4-yl)piperazin-1-yl) methanone], the inhibition at 5 µM under setting [3] lay within 25 to 50%.

`O=C(C1CCCN(S(=O)(=O)c2cccc(F)c2)C1)N1CCN(c2cc(C(F)(F)F)nc3ccccc23)CC1` (stereo not drawn) [Formula 72, (1-(3-fluorophenylsulfonyl)piperidin-3-yl) (4-(2-(trifluoromethyl)quinolin-4-yl)piperazin-1-yl) methanone]: the inhibition at 5 µM under setting [3] lay within 25 to 50%.

Take `O=C(C1CCCN(S(=O)(=O)c2c(F)c(F)c(F)c(F)c2F)C1)N1CCN(c2cc(C(F)(F)F)nc3ccccc23)CC1` (stereo not drawn) [Formula 73, (1-(perfluorophenylsulfonyl)piperidin-3-yl) (4-(2-(trifluoromethyl)quinolin-4-yl)piperazin-1-yl) methanon]: the inhibition at 5 µM under setting [3] was 25 to 50%.

Take `O=C(C1CCCN(S(=O)(=O)c2ccccc2)C1)N1CCN(c2ccnc3ccccc23)CC1` (stereo not drawn) [Formula 74, (1-(phenylsulfonyl)piperidin-3-yl) (4-(quinolin-4-yl)piperazin-1-yl) methanone]: the inhibition at 5 µM under setting [2] was in the range of 50 to 75%.

In the case of `O=C(C1CCCN(S(=O)(=O)c2ccc(F)cc2)C1)N1CCN(c2ccnc3ccccc23)CC1` (stereo not drawn) [Formula 75, (1-(4-fluorophenylsulfonyl)piperidin-3-yl) (4-(quinolin-4-yl)piperazin-1-yl) methanone], the inhibition at 5 µM under setting [1] is ≥ 75%.

On to `O=C(C1CCCN(S(=O)(=O)c2ccc(O)cc2)C1)N1CCN(c2ccnc3ccccc23)CC1` (stereo not drawn) [Formula 76, (1-((4-hydroxyphenyl)sulfonyl)piperidin-3-yl) (4-(quinolin-4-yl)piperazin-1-yl) methanone], for which the inhibition at 5 µM under setting [1] is ≥ 75%.

With `CN(C)c1ccc(S(=O)(=O)N2CCCC(C(=O)N3CCN(c4ccnc5ccccc45)CC3)C2)cc1` (stereo not drawn) [Formula 77, (1-(4-(dimethylamino)phenylsulfonyl)piperidin-3-yl) (4-(quinolin-4-yl)piperazin-1-yl) methanone], the inhibition at 5 µM under setting [1] was ≥ 75%.

As for `CC(=O)Nc1ccc(S(=O)(=O)N2CCCC(C(=O)N3CCN(c4ccnc5ccccc45)CC3)C2)cc1` (stereo not drawn) [Formula 78, N-(4-((3-(4-(quinolin-4-yl)piperazine-1-carbonyl)piperidin-1-yl)sulfonyl)phenyl) acetamide], the inhibition at 5 µM under setting [1] is ≥ 75%.

As to `CN(C)c1ccc(S(=O)(=O)N2CCC[C@@H](C(=O)N3CCN(c4ccnc5ccccc45)CC3)C2)cc1` [Formula 79, (R)-(1-(4-(dimethylamino)phenylsulfonyl)piperidin-3-yl) (4-(quinolin-4-yl)piperazin-1-yl)methanone], under setting [1], the inhibition at 5 µM is ≥ 75%.

For the molecule `CN(C)c1ccc(S(=O)(=O)N2CCC[C@H](C(=O)N3CCN(c4ccnc5ccccc45)CC3)C2)cc1` [Formula 80, (S)-(1-(4-(dimethylamino)phenylsulfonyl)piperidin-3-yl) (4-(quinolin-4-yl)piperazin-1-yl)methanone], under setting [1], the inhibition at 5 µM was ≥ 75%.

With `O=C(C1CCCN(S(=O)(=O)c2ccc([N+](=O)[O-])cc2)C1)N1CCN(c2ccnc3ccccc23)CC1` (stereo not drawn) [Formula 81, (1-(4-nitrophenylsulfonyl)piperidin-3-yl) (4-(quinolin-4-yl)piperazin-1-yl) methanone], the inhibition at 5 µM under setting [1] is ≥ 75%.

Take `O=C(C1CCCN(S(=O)(=O)c2cccc([N+](=O)[O-])c2)C1)N1CCN(c2ccnc3ccccc23)CC1` (stereo not drawn) [Formula 82, (1-(3-nitrophenylsulfonyl)piperidin-3-yl) (4-(quinolin-4-yl)piperazin-1-yl) methanone]: the inhibition at 5 µM under setting [1] was ≥ 75%.

In the case of `CCN(CC)c1ccc(S(=O)(=O)N2CCCC(C(=O)N3CCN(c4ccnc5ccccc45)CC3)C2)cc1` (stereo not drawn) [Formula 83, (1-(4-(diethylamino)phenylsulfonyl)piperidin-3-yl) (4-(quinolin-4-yl)piperazin-1-yl)methanone], under setting [1], the inhibition at 5 µM was ≥ 75%.

`O=C(C1CCCN(S(=O)(=O)c2ccc(-c3ccccc3)cc2)C1)N1CCN(c2ccnc3ccccc23)CC1` (stereo not drawn) [Formula 84, (4-(quinolin-4-yl)piperazin-1-yl) (1-(4-phenylbenzenesulfonyl)piperidin-3-yl) methanone]: the inhibition at 5 µM under setting [1] was ≥ 75%.
